Measurements taken from patent US9018173B2, “Materials and methods for suppressing inflammatory and neuropathic pain” (Indiana University Research and Technology Corp., priority 2010, dated 2015).
Residues, ends and D or L forms follow the SMILES beside them.

Columns and labels:
[1] = biological target: T1, CaV2.2 (Rattus norvegicus, UniProt Q02294); assay: Peptide spot array far-Western: CaV2.2 binding to 15-mer CRMP-2 peptides; conditions: 15-mer peptide #96 overlaid with spinal cord lysates / rat brain synaptosomes
T1 construct: incubated with a purified synaptosome fraction enriched in Ca^2+ channels; from tissue; host or cells: P1 neonatal rat brain synaptosomes, enriched on WGA-Sepharose and heparin-agarose
T1 sequence (Q02294 whole entry): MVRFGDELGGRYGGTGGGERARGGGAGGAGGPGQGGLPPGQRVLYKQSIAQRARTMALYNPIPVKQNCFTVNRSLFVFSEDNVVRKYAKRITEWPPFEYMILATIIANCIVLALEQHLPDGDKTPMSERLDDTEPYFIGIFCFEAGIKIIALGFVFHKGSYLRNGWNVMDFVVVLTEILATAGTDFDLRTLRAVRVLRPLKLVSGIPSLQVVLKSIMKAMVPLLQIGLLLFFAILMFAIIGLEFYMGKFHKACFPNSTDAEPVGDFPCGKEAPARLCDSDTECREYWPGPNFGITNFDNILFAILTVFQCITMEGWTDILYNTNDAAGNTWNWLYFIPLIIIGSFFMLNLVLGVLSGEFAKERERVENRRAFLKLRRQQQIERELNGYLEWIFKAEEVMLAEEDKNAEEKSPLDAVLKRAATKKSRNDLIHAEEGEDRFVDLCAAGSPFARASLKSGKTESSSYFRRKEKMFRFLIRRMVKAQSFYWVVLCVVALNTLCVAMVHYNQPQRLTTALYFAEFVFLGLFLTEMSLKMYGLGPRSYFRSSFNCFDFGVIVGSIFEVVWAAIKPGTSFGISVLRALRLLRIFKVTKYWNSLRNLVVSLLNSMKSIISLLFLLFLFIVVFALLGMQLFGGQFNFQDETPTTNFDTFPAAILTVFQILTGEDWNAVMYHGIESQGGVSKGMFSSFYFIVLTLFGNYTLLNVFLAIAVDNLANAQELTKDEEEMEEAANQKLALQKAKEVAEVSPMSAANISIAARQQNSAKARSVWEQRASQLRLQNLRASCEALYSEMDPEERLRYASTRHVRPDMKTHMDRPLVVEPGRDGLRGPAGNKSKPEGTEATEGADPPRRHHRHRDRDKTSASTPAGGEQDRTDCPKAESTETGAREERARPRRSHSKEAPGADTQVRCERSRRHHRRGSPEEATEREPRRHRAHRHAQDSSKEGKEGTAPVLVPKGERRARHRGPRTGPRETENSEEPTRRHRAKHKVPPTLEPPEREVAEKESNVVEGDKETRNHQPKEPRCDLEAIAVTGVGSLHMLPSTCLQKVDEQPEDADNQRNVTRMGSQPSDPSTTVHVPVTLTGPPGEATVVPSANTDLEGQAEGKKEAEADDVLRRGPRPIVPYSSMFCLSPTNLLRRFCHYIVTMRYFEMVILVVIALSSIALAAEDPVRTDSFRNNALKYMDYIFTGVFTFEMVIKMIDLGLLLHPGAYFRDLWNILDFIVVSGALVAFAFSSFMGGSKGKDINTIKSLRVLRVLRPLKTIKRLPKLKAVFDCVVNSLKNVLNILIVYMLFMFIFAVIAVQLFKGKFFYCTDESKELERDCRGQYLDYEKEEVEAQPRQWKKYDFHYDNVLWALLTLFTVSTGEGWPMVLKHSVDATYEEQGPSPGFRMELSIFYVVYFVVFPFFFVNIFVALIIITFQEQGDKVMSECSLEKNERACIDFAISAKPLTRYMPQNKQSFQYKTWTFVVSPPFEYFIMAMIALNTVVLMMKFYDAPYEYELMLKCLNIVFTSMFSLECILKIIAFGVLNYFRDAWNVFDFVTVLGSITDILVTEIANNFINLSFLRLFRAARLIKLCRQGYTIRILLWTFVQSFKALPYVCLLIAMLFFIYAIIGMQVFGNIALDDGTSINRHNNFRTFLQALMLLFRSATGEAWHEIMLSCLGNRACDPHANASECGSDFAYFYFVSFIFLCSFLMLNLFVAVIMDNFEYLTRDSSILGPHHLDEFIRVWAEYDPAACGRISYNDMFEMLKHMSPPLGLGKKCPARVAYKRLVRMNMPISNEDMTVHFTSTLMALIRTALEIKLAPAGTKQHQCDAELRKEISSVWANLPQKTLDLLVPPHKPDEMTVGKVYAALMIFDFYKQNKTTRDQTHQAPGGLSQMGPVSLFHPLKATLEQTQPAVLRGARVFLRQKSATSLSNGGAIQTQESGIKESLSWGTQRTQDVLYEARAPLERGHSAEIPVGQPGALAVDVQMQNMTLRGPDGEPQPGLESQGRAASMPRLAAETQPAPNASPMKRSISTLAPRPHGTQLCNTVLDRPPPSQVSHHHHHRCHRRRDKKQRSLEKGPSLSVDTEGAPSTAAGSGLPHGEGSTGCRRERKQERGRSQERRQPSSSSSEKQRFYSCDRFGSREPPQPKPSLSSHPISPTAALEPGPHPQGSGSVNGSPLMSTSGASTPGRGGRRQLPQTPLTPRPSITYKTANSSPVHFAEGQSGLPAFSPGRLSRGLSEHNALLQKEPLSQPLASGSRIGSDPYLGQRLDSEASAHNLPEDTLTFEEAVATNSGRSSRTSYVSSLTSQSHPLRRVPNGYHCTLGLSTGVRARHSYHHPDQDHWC
Method: Purification/Enrichment of Ca^2+ channels from synaptosomes. In order to prepare a rich source of CaV2.2 for the far-Western analyses (see below), synaptosomes from P1 neonatal rat brains were solubilized with digitonin and enriched by chromatography on WGA-Sepharose as described previously. Briefly, 30 PN1 neonatal rat brains were homogenized in 180 ml of 320 mM sucrose with a glass-Teflon homogenizer. After a short centrifugation (5000 rpm, 2 min), the supernatant (SN) was centrifuged (42,000 rpm, 60 min). The membranes were solubilized with 1.2% digitonin, 80 mM sodium phosphate buffer, pH 7.4 for 20 min. Unsolubilized material was removed by the centrifugation as before, and the supernatant (S3) was poured over a 40 ml WGA-Sepharose column (50 ml/h). After incubation for 1 hr at 4° C., the column was washed with 10 column volumes of 0.1% digitonin, 75 mM NaCl, 50 mM sodium phosphate, 10 mM Tris-HCl (pH 7.4) at a flow rate of 50 ml/hr. The glycoproteins bound to the WGA-Sepharose column were eluted with 100 mM N-acetyl-D-glucosamine (Sigma, St. Louis, Mo.) in the same buffer at a flow rate of 50 ml/hr. Three milliliter fractions were collected and the protein concentration of each fraction was determined by BCA protein assay kit (Thermo Fisher Scientific, Shelbyville, Ind.). […]

[2] = biological target: CaV2.2 current density in hippocampal neurons (Rattus norvegicus, UniProt Q02294); assay: Whole-cell patch-clamp Ca2+ currents in hippocampal neurons; type: cell-based; conditions: co-expression with CRMP-2 in hippocampal neurons; +10 mV
Sequence of CaV2.2 current density in hippocampal neurons (Q02294 whole entry): as above
Sequence of CaV2.2 current density in hippocampal neurons (P54287 whole entry partner): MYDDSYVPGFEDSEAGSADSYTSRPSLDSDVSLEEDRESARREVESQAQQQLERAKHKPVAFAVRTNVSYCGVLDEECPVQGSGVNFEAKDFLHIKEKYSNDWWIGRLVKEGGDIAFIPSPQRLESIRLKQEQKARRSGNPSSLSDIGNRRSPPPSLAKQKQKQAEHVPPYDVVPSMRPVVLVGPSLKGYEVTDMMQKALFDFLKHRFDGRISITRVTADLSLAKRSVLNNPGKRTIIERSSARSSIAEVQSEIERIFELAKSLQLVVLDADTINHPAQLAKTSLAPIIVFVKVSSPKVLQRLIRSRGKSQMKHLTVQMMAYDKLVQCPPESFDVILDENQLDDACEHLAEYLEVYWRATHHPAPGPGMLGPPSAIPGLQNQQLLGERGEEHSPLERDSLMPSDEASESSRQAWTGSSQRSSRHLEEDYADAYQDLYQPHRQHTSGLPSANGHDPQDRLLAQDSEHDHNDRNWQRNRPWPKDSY
Sequence of CaV2.2 current density in hippocampal neurons (P54290 25-944 partner limits assumed): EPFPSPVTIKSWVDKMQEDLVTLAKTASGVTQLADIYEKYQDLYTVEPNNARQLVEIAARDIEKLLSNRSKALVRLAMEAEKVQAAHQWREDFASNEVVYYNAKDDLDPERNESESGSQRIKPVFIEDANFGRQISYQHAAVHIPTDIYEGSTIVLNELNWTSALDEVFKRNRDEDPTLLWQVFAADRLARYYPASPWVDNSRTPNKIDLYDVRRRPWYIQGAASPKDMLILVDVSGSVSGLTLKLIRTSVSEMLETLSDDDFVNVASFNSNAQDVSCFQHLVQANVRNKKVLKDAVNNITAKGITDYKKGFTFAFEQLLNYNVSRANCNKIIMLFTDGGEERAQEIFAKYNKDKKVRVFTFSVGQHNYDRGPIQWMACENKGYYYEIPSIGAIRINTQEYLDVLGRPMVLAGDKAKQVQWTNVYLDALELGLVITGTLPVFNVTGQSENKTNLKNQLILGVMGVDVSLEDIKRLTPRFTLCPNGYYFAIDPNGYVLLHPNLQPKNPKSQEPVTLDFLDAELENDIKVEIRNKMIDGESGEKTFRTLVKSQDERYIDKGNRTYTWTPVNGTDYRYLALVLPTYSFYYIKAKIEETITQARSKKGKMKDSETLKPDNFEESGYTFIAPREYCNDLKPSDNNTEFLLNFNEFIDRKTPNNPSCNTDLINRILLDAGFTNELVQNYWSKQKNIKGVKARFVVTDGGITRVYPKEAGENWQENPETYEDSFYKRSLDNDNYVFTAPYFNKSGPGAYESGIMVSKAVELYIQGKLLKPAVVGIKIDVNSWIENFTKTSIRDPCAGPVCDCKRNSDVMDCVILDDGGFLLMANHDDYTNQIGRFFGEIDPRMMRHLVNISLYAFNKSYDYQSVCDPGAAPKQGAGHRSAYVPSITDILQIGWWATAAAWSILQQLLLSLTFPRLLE
Sequence of CaV2.2 current density in hippocampal neurons (P54290 945-1091 partner limits assumed): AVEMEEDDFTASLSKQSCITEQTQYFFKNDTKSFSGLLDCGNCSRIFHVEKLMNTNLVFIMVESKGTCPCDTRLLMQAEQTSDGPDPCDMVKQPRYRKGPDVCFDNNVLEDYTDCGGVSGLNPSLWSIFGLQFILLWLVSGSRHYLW

[3] = system: tail kinking and body contortion; assay: Observation of side-effects after i.p. injection in mice; type: in vivo
Description: Referring now to FIG. 24. Biodistribution and side-effects of TAT-CBD3. […] Oxygenated blood was collected from a cardiac puncture. […] The 95% confidence limits are also indicated.
The possible effects of TAT-CBD3 on motor coordination, locomotor function, sedation (rotarod test) and hippocampal-dependent memory (Morris water-maze test) was investigated.

[4] = system: anxiety-associated behavior; assay: Elevated plus maze (EPM); type: in vivo, C57BL6 mice; conditions: for Elevated Plus Maze: Closed arm entries / Elevated Plus Maze: Closed arm latency to enter / Elevated Plus Maze: Closed arm latency to exit / Elevated Plus Maze: Open arm entries / Elevated Plus Maze: Open arm latency to enter / Elevated Plus Maze: Open arm latency to exit: C57BL6 mice, 1 h after injection, 5 min test
[5] = system: capsaicin-induced meningeal blood flow changes; conditions: read-out: IC50 of percent inhibition of capsaicin-induced blood flow; dural application; versus averaged TAT-scramble; n=4-5
[6] = Biodistribution after i.p. injection (dot blot, FITC fluorescence); conditions: 25 mg/kg i.p.

ARSRLAELRGVPRGL (CBD3)
binding to CaV2.2 [1]: bound to the CaV2.2
CRMP-2-mediated increase in CaV2.2 current density [2]: eliminated

CC(C)C[C@H](NC(=O)CNC(=O)[C@H](CCCNC(=N)N)NC(=O)[C@@H]1CCCN1C(=O)[C@@H](NC(=O)CNC(=O)[C@H](CCCNC(=N)N)NC(=O)[C@H](CC(C)C)NC(=O)[C@H](CCC(=O)O)NC(=O)[C@H](C)NC(=O)[C@H](CC(C)C)NC(=O)[C@H](CCCNC(=N)N)NC(=O)[C@H](CO)NC(=O)[C@H](CCCNC(=N)N)NC(=O)[C@H](C)NC(=O)[C@H](CCCNC(=N)N)NC(=O)[C@H](CCCNC(=N)N)NC(=O)[C@H](CCCNC(=N)N)NC(=O)[C@H](CCC(N)=O)NC(=O)[C@H](CCCNC(=N)N)NC(=O)[C@H](CCCNC(=N)N)NC(=O)[C@H](CCCCN)NC(=O)[C@H](CCCCN)NC(=O)[C@H](CCCNC(=N)N)NC(=O)CNC(=O)[C@@H](N)Cc1ccc(O)cc1)C(C)C)C(=O)O [TAT-CBD3] (H-YGRKKRRQRRRARSRLAELRGVPRGL-OH; N-terminus and C-terminus assumed)
side-effects immediately following injection ([3]; 10 and 50 mg/kg): A single episode of kinking at the base of the tail and whole body contortion was observed in mice
tail kinking episodes ([3]; n=7 each condition): only a single episode of tail kinking movement was observed in the mice
dose giving mild motor impairment relative to dose required to reduce hypersensitivity in vivo ([3]; transient tail kinking and body contortion): more than 50 fold
body contortion ([3]; up to 50 mg/kg, n=7): no body contortion was observed in mice
Elevated Plus Maze: Closed arm entries ([4]; 0.1 mg/kg i.p.): 19.1 ± 1.4
Elevated Plus Maze: Closed arm latency to enter ([4]; 0.1 mg/kg i.p.): 4.5 ± 2.2 s
Elevated Plus Maze: Closed arm latency to exit ([4]; 0.1 mg/kg i.p.): 14.9 ± 2.9 s
Elevated Plus Maze: Open arm entries ([4]; 0.1 mg/kg i.p.): 13.6 ± 1.6
Elevated Plus Maze: Open arm latency to enter ([4]; 0.1 mg/kg i.p.): 10.3 ± 2.7 s
Elevated Plus Maze: Open arm latency to exit ([4]; 0.1 mg/kg i.p.): 17.7 ± 2.5 s
Elevated Plus Maze: Closed arm entries ([4]; 1 mg/kg i.p.): 26.4 ± 4.2
Elevated Plus Maze: Closed arm latency to enter ([4]; 1 mg/kg i.p.): 2.4 ± 2.1 s
Elevated Plus Maze: Closed arm latency to exit ([4]; 1 mg/kg i.p.): 11.1 ± 2.6 s
Elevated Plus Maze: Open arm entries ([4]; 1 mg/kg i.p.): 19.7 ± 3.1
Elevated Plus Maze: Open arm latency to enter ([4]; 1 mg/kg i.p.): 10.1 ± 2.9 s
Elevated Plus Maze: Open arm latency to exit ([4]; 1 mg/kg i.p.): 16.4 ± 3.1 s
Elevated Plus Maze: Closed arm entries ([4]; 10 mg/kg i.p.): 27.4 ± 7.0
Elevated Plus Maze: Closed arm latency to enter ([4]; 10 mg/kg i.p.): 5.3 ± 2.2 s
Elevated Plus Maze: Closed arm latency to exit ([4]; 10 mg/kg i.p.): 10.6 ± 3.5 s
Elevated Plus Maze: Open arm entries ([4]; 10 mg/kg i.p.): 20.0 ± 6.1
Elevated Plus Maze: Open arm latency to enter ([4]; 10 mg/kg i.p.): 4.6 ± 1.9 s
Elevated Plus Maze: Open arm latency to exit ([4]; 10 mg/kg i.p.): 11.1 ± 2.1 s
EPM time in and entries into open/closed arms ([4]; any dose, compared to TAT-Scramble): neither time spent in the open or closed arms, nor frequency of entries into the open nor closed arms were altered
IC50 [5]: 3.1 ± 1.1 µM
tissue distribution (dot blot, anti-TAT antibody) ([6]; 15 min post-injection): detected in spleen and largely concentrated in lumbar dorsal root ganglion (DRG) and lumbar section of the spinal cord
tissue distribution (dot blot, anti-TAT antibody) ([6]; 1 h post-injection): also detected in kidney, brain, spinal cord and was abundant in the DRG
